The source of these data is patent US10813891B2, “Method of inhibiting chronification of pain” (priority 2011, dated 2020).

Where “and” joins values, the source holds several entries; their conditions need not be identical. Equal values may be shown once. Read-outs that look alike come from different tables or passages of the source.

Assay [1] has as its system male albino rats (Sprague Dawley) with paw incision. In words: Paw incision model for postoperative pain (electronic von Frey, tactile withdrawal threshold). It counts as in vivo, rat. The text has this: Post operative, incisional pain is a common form of persistent, acute pain. Brennan et al. (Brennan T J, Vandermeulen E P, and Gebhart G F. Characterization of a rat model of incisional pain. Pain 1996; 64:493-501) developed a post operative model in rats with surgical intervention on the plantar surface of the hind foot for the evaluation of novel analgesic therapeutics. A surgical incision of the rat foot causes a reliable and quantifiable tactile hypersensitivity during the initial post operative period and lasting for several days after surgery. This model may thus be useful for predicting analgesia by investigational agents for post operative pain.
The experiments were carried out in male albino rats (Sprague Dawley) with 170 g-230 g body weight from a commercial breeder (Charles River, Germany). Surgery was performed as previously described. Brennan et al. (Brennan T J, Vandermeulen E P, and Gebhart G F. Characterization of a rat model of incisional pain. Pain 1996; 64:493-501). Briefly, rats were anaesthetised with isoflurane, and a 1 cm longitudinal incision was made, through skin and fascia of the plantar aspect of the foot, starting from the proximal edge of the heel and extending toward the metatarsal toes. The plantaris muscle was elevated and incised longitudinally. The muscle origin and insertion remained intact. After spreading of the muscle and haemostasis with gentle pressure, the skin was closed with two single interrupted sutures. After surgery, the rats were allowed to recover in their home cages and the animals regained consciousness within 2 to 5 minutes. In order to ensure a complete recovery from anaesthesia the baseline value of each individual animal was recorded not until 2 hours after surgery.
The rats were placed in a plastic cage with a wire mesh bottom which allowed full access to the paws. Hind paw withdrawal threshold after mechanical stimulation was tested with electronic von Frey hairs (Somedic Sales AB, Hörby, Sweden). Ten rats were used per experimental group. Animals were placed in a plastic cage with a wire mesh bottom which allowed full access to the paws. Behavioral accommodation was allowed for 30 min. In each case, withdrawal response was measured at an area adjacent to the wound (ipsilateral) and to the same area on the non-injured foot (contralateral). Two hours after surgery, primary hypersensitivity was tested as tactile withdrawal threshold (tactile hyperalgesia) shortly before drug administration and at different time points after drug application. Animals injected with vehicle served as controls. The pretest measurement was made prior to surgery and two thresholds were taken per test and averaged. Ten rats were used per experimental group. Tactile withdrawal threshold was measured pre and after substance administration from day 1 to day 5 post surgery. From day 6 to day 13 post surgery the withdrawal threshold was measured without substance administration (wash out phase). The efficacy was expressed as MPE %=% of maximal possible effect, whereas MPE is defined as 100% reversal of tactile hyperalgesia compared to vehicle group.
Tapentadol at the dose of 14.7 mg/kg intraperitoneal route (i.p.) was adminstered twice daily (BID) (7 a.m./7 p.m.) throughout day 1 to day 5. The first administration was given 20 min before surgery on day 1. From day 6 to day 13 no substance was given (wash out phase) The study scheme is schematically illustrated in FIG. 1.

Another assay concerns CCI-SN rats. It counts as in vivo, rat. As to the method:
Male Sprague-Dawley rats (Charles River Laboratories, L'Arbresle, France), weighing 150-200 g on arrival, were used. Animals were maintained under controlled environmental conditions (22±1° C., 60% relative humidity, 12 h/12 h light/dark cycle, food and water ad libitum) starting from reception in the laboratory, for at least 1 week before any intervention or treatment and thereafter, until euthanasia.
Rats were anaesthetized as above and the common sciatic nerve was exposed. Using a dissection microscope (2× magnification), four chromic catgut (5-0) ligations were tied loosely with about 1 mm spacing, proximally to the sciatic trifurcation (Bennett and Xie, 1988). Finally, the skin and muscle were sewed using silk sutures (4-0). In sham-operated animals, the same surgery was performed, but the nerve was not ligated.
Tapentadol (1, 3 and 10 mg/kg i.p.), reboxetine (10 mg/kg i.p.), morphine (1 and 3 mg/kg s.c.) or their vehicle (0.9% NaCl) were injected acutely 14 days after surgery, when allodynia/hyperalgesia reached a plateau in both CCI-SN and CCI-ION rats. Behavioral tests were performed at various times for up to 4 h after injection. In drug association procedure, reboxetine or saline was administered 15 min before morphine or saline.
Subchronic treatment consisted of twice daily injections of tapentadol (10 mg/kg, i.p. at 10:00 am and 6:00 pm) or saline for 4 days starting on the 15th day after nerve ligation in both CCI-ION and CCI-SN rats. Animals were further injected with tapentadol (10 mg/kg i.p.) or saline at 10:00 am the following day (19th day post-surgery), and assessment of allodynia with von Frey filament tests (see below) was made at various times up to 4 hours after this injection. All rats were killed by decapitation 4 hours after the last injection for real-time qRT-PCR determinations of specific mRNAs in ganglia and central tissues (see below).
Before testing, each rat was habituated for 2 h as above, and mechanical sensitivity was then determined with a graded series of […] von Frey filaments, that produced a bending force of 6, 8, 10, 12, 15, 26, and 60 g, respectively. The stimuli were applied within the SN territory (lateral part of the hind paw sole). Each filament was tested three times on the nerve-injured side in increasing order starting with the filament producing the lowest force. As for the CCI-ION rats, the von Frey filaments were applied at least 3 seconds after the rat had returned to its initial resting state. The minimal force filament for which animals presented either a brisk paw withdrawal and/or an escape attempt in response to at least 2 out of the 3 stimulations allowed determination of the mechanical response threshold. The 60.00 g filament was chosen as the cutoff threshold to inhibit any tissue injury.
A—Two weeks after unilateral chronic constriction injury to the sciatic nerve, pressure threshold values (as g) to trigger nocifensive responses to von Frey filaments application onto the plantar surface of ipsilateral hindpaw were determined at various times after acute injection of tapentadol (1, 3 or 10 mg/kg, i.p.) or saline. B—On day 15 (D on abscissa) after nerve ligation, rats were treated subchronically with tapentadol (10 mg/kg, i.p., twice daily, at 10:00 AM and 6:00 PM) or saline for four days. On the following day (day 19 after surgery), both tapentadol- and saline-pretreated CCI-SN rats were injected with tapentadol (10 mg/kg, i.p.; 0 on abscissa) and then subjected to von Frey filaments' test applied to ipsilateral hindpaw for determination of pressure threshold values (as g) at various times thereafter.

For `CC[C@@H](c1cccc(O)c1)[C@@H](C)CN(C)C` [Tapentadol, (−)-(1R,2R)-3-(3-dimethylamino-1-ethyl-2-methyl-propyl)-phenol], the “effect on sustained tactile hyperalgesia following surgical lesion” value in assay [1] (14.7 mg/kg i.p. BID day 1-5, washout day 6-13) is “outlasts treatment duration”. Moreover, the “MPE % (reversal of tactile hyperalgesia)” value in assay [1] (14.7 mg/kg i.p. BID day 1-5, d 2_0.5 h (0.5 h after treatment on day 2 after surgery)) was 38.3±5.48% and 38.3 ± 4.58 %; in assay [1] (14.7 mg/kg i.p. BID, d 3-0.5 h), 36.8 ± 2.41 %; in assay [1] (14.7 mg/kg i.p. BID, d 4-0.5 h), 34.5 ± 3.27 %; in assay [1] (14.7 mg/kg i.p. BID, d 5-0.5 h (last day of treatment)), 22.8 ± 5.29 %; in assay [1] (14.7 mg/kg i.p. BID, d 5-0.5 h (last day of treatment), listed as tapentadol), 22.8±5.29%; in assay [1] (14.7 mg/kg i.p. BID, pre-d 3 (before administration, day 3)) it was −0.6 ± 2.21 n.s. %. Also, the “MPE % (reversal of tactile hyperalgesia)” value in assay [1] (14.7 mg/kg i.p. BID, pre-d 4) is −6.00 ± 1.63 %; in assay [1] (14.7 mg/kg i.p. BID, pre-d 5) it was −6.60 ± 1.67 %; in assay [1] (pre-d 8, washout phase (third day of washout) after 14.7 mg/kg i.p. BID day 1-5), 2.60 ± 2.51 n.s. %; in assay [1] (pre-d 8, washout phase (third day of washout) after 14.7 mg/kg i.p. BID day 1-5, listed as tapentadol), 3%; in assay [1] (pre-d 10, washout phase after 14.7 mg/kg i.p. BID day 1-5) it was 11.4 ± 3.21 %; in assay [1] (pre-d 11, washout phase after 14.7 mg/kg i.p. BID day 1-5), 8.90 ± 2.59 %. In addition, the “MPE % (reversal of tactile hyperalgesia)” value in assay [1] (pre_d 9, washout phase after 14.7 mg/kg i.p. BID day 1-5) worked out at 17.2 ± 3.43 %; in assay [1] (pre_d 9, washout phase after 14.7 mg/kg i.p. BID day 1-5, listed as tapentadol), 17%; in assay [1] (pre_d 12, washout phase (7 days of washout) after 14.7 mg/kg i.p. BID day 1-5), 8.60 ± 3.94 %; in assay [1] (pre_d 12, washout phase (7 days of washout) after 14.7 mg/kg i.p. BID day 1-5, listed as tapentadol), 9%. Moreover, the “remaining efficacy as % of the efficacy after substance treatment on day 5” value in assay [1] (after 7 days of washout) is given as 39%; in assay [1] (day 9 (washout)), 74%. Besides, the “anti-allodynic effect after subchronic pretreatment vs saline pretreatment” value in the assay with CCI-SN rats (10 mg/kg i.p. twice daily for four days, challenge 10 mg/kg i.p. day 19) was “produced the same anti-allodynic effects”. Further, the “increase in pressure threshold value” in the assay with CCI-SN rats (acute 1 mg/kg i.p., first 15-30 min after injection, non significant) is on record as “approximately 40%”. The “pressure threshold values (anti-allodynic effect)” value with CCI-SN rats (acute 3 mg/kg i.p.) is “also increased pressure threshold values, but to a lower extent than 10 mg/kg i.p”; in the assay with CCI-SN rats (acute 10 mg/kg i.p., 15-30 min after administration), “no longer differed from healthy control values”. In addition, the mechanical allodynia entry with CCI-SN rats (acute 10 mg/kg i.p., 90 min after injection) is on record as “mechanical allodynia did not significantly differ from that measured in saline-treated CCI-SN rats”.
